One assay relates to rats. The experiment in a line: Pharmacological test for diuretic properties (urine volume). The conditions noted are these: 50 mg/kg gastric gavage, 25 ml/kg saline s.c., urine collected 4 hours, ml/kg of body weight. In kind it is in vivo. As to the method:
2. Pharmacological tests for diuretic properties Lots of 3 rats weighting 250-300 g have been constituted at random, each of them being submitted to the same treatment. The compound to be tested was administered by .[.gastric gavage at a dose of 50 ml/kg as a solution or a.]. .Iadd.gastric gavage at a dose of 50 mg/kg as a solution or a .[…].suspension in water containing 0.45% of methylcellulose (which is an inert mucilaginous substance). Control animals received only distilled water as a placebo. At the same time, all the animals received 25 ml/kg of physiological saline by subcutaneous injection. The rats were then placed in metabolic cages, each cage containing 3 animals receiving the same treatment. The urines have been collected during 4 hours. […] The diuresis is expressed in ml/kg of body weight.

The test system of a further assay is paw of rats. The experiment in a line: Pharmacological test for anti-inflammatory properties (carrageenan rat paw swelling). In kind it is in vivo. The conditions noted are these: oral 1 hour before carrageenan (0.05 ml of 1%), swelling 4 hours after injection by plethysmography, dose not given. As to the method:
1. Pharmacological test for anti-inflammatory properties.
The compounds to be tested are given as freshly prepared solutions or suspensions by oral route 1 hour before injecting the paw of rats with carrageenan which is a known inflammatory agent.
The inflammatory agent (carrageenan) either in solution or suspension is then injected into the plantar tissue of the right hind paw of each rat, the left paw remaining untreated and serving as control. Each animal receives, for example, 0.05 ml of an aqueous solution containing 1% by weight of carrageenan and 0.9% of sodium chloride.
4 hours after the injection of the inflammatory agent, the importance of swelling is determined by plethysmography and is expressed as a percent of the volume of the control paw.
The anti-inflammatory effect expressed as a percentage of inhibition is obtained by comparison between rats treated with the anti-inflammatory compound and a control group of rats.

In the assay on rats, “3-isopropylcarbamylsulfonamido-4-isopropylaminopyridine [JDL 363]” showed a Diuresis of 40.1 mL/kg. The “% inhibition of acute oedema” value in the assay on paw of rats came out at 63.2%.
For `O=C(NS(=O)(=O)c1cnccc1Nc1cccc(C(F)(F)F)c1)c1ccccc1` [C 2129, 3-benzoylsulfonamido-4-(3'-trifluoromethyl)-phenylaminopyridine], in the assay with rats, the Diuresis came to 30.3 mL/kg. Moreover, the “% inhibition of acute oedema” value in the assay with paw of rats is given as 23.2%.
With `NS(=O)(=O)c1cnccc1NCc1ccco1` [JDL 181, 3-sulfonamido-4-methylfurylamino-pyridine], the Diuresis in the assay on rats came out at 14.8 mL/kg. For the same compound, the “% inhibition of acute oedema” value in the assay with paw of rats was 21.6%.
In the same order, the values of `CCCCNC(=O)NS(=O)(=O)c1cnccc1Nc1cccc(Cl)c1` [JDL 344, 3-butylcarbamylsulfonamido-4-(3'-chloro)-phenylaminopyridine] are 66.9 mL/kg and 82.4%.
The compound `CCCNC(=O)NS(=O)(=O)c1cnccc1Nc1cccc(C(F)(F)F)c1` [JDL 355, 3-propylcarbamylsulfonamido-4-(3'-trifluoromethyl)phenylaminopyridine] registered a Diuresis in the assay with rats of 57.0 mL/kg. Also, the “% inhibition of acute oedema” value in the assay on paw of rats was 48.8%.
In the same order, the values of `CCCCNC(=O)NS(=O)(=O)c1cnccc1Nc1cccc(C(F)(F)F)c1` [JDL 356, 3-butylcarbamylsulfonamido-4-(3'-trifluoromethyl)-phenylaminopyridine] are 54.7 mL/kg and 80.8%.
Compound `O=C(Nc1ccc(Cl)cc1)NS(=O)(=O)c1cnccc1Nc1cccc(C(F)(F)F)c1` [JDL 357, 3-parachlorophenylcarbamylsulfonamido-4-(3'-trifluoromethyl)-phenylaminopyridine] returned a Diuresis with rats of 11.2 mL/kg. For the same compound, the “% inhibition of acute oedema” value with paw of rats is recorded as 52.0%.
In the same order, the values of `CCC(=O)NS(=O)(=O)c1cnccc1N(C)c1ccccc1` [JDL 358, 3-propionylsulfonamido-4-(N-methylanilino)-pyridine] are 17.9 mL/kg and 57.3%.
In the same order, the values of `NS(=O)(=O)c1cnccc1Oc1cccc(Cl)c1` [JDL 360, 3-sulfonamido-4-(3'-chloro)-phenoxypyridine] are 5.2 mL/kg and 33.6%.
The compound `NS(=O)(=O)c1cnccc1Sc1cccc(Cl)c1` [JDL 361, 3-sulfonamido-4-(3'-chloro)-thiophenoxypyridine] had a Diuresis with rats of 9.6 mL/kg. Further, the “% inhibition of acute oedema” value with paw of rats stood at 56.8%.
As for `CC(=O)NS(=O)(=O)c1cnccc1Sc1cccc(Cl)c1` [JDL 362, 3-acetylsulfonamido-4-(3-chloro)-thiophenoxy-pyridine], in the assay on rats, the Diuresis came out at 8.1 mL/kg. Further, the “% inhibition of acute oedema” value in the assay on paw of rats stood at 37.6%.
On to `O=C(NC1CCCCC1)NS(=O)(=O)c1cnccc1Nc1cccc(C(F)(F)F)c1` [JDL 364, 3-cyclohexylcarbamylsulfonamido-4-(3'-trifluoromethyl)-phenylaminopyridine], for which the Diuresis with rats came out at 37.7 mL/kg. In the assay with paw of rats, the “% inhibition of acute oedema” value was 58.4%.
In the same order, the values of `CCCNC(=O)NS(=O)(=O)c1cnccc1Oc1cccc(Cl)c1` [JDL 365, 3-propylcarbamylsulfonamido-4-(3'-chloro)-phenoxypyridine] are 8.7 mL/kg and 43.2%.
On the same counts, the results for `CCCCNC(=O)NS(=O)(=O)c1cnccc1Sc1cccc(Cl)c1` [JDL 366, 3-butylcarbamylsulfonamido-4-(3'-chloro)-thiophenoxypyridine] are 11.1 mL/kg and 56.0%.
In the same order, the values of `CC(C)(C)NC(=O)NS(=O)(=O)c1cnccc1Nc1cccc(C(F)(F)F)c1` [JDL 367, 3-tertbutylcarbamylsulfonamido-4-(3'-trifluoromethyl)-phenylaminopyridine] are 11.1 mL/kg and 80.0%.
`O=C(Nc1ccccc1)NS(=O)(=O)c1cnccc1Nc1cccc(C(F)(F)F)c1` [JDL 368, 3-phenylcarbamylsulfonamido-4-(3'-trifluoromethyl)phenylaminopyridine]: in the assay with rats, the Diuresis is 6.1 mL/kg. The “% inhibition of acute oedema” value with paw of rats is 57.0%.
On the same counts, the results for `CCCNC(=O)NS(=O)(=O)c1cnccc1Nc1cccc(Cl)c1` [JDL 375, 3-propylcarbamylsulfonamido-4-(3'-chloro)-phenylaminopyridine] are 80.5 mL/kg and 46.4%.
Regarding `CNC(=O)NS(=O)(=O)c1cnccc1Nc1cccc(C(F)(F)F)c1` [JDL 378, 3-methylcarbamylsulfonamido-4-(3'-trifluoromethyl)-phenylaminopyridine], the Diuresis with rats was 84.0 mL/kg. Besides, the “% inhibition of acute oedema” value in the assay with paw of rats is given as 74.4%.
In the assay with rats, `CNC(=O)NS(=O)(=O)c1cnccc1Nc1cccc(Cl)c1` [JDL 379, 3-methylcarbamylsulfonamido-4-(3'-chloro)-phenylaminopyridine] had a Diuresis of 76.5 mL/kg. Also, in the assay on paw of rats, the “% inhibition of acute oedema” value was 63.2%.
`CCCNC(=O)NS(=O)(=O)c1cnccc1N(C)c1ccccc1` [JDL 383, 3-pripylcarbamylsulfonamido-4-N-methyl-anilinopyridine] displayed a Diuresis in the assay on rats of 57.8 mL/kg. The “% inhibition of acute oedema” value in the assay on paw of rats is recorded as 55.2%.
On the same counts, the results for `CCCNC(=O)NS(=O)(=O)c1cnccc1Sc1cccc(Cl)c1` [JDL 384, 3-propylcarbamylsulfonamido-4-(3'-chloro)-thiophenoxypyridine] are 12.8 mL/kg and 66.4%.
In the same order, the values of `CC(C)(C)NC(=O)NS(=O)(=O)c1cnccc1Sc1cccc(Cl)c1` [JDL 385, 3-tertiobutylcarbamylsulfonamido-4-(3'-chloro)-thiophenoxypyridine] are 17.6 mL/kg and 46.6%.
In the same order, the values of `CCNC(=O)NS(=O)(=O)c1cnccc1Nc1cccc(C(F)(F)F)c1` [JDL 386, 3-ethylcarbamylsulfonamido-4-(3'-trifluoromethyl)-phenylaminopyridline] are 80.5 mL/kg and 80.8%.
In the assay with rats, `CCNC(=O)NS(=O)(=O)c1cnccc1Nc1cccc(Cl)c1` [JDL 387] came in with a Diuresis of 80.9 mL/kg. Also, the “% inhibition of acute oedema” value in the assay with paw of rats is reported as 76.8%.
In the same order, the values of `CC(C)(C)NC(=O)NS(=O)(=O)c1cnccc1Nc1cccc(Cl)c1` [JDL 388, 3-tertiobutylcarbamylsulfonamido-4-(3'-chloro)-phenylaminopyridine] are 37.0 mL/kg and 66.4%.
In the same order, the values of `O=C(NC1CCCCC1)NS(=O)(=O)c1cnccc1Nc1cccc(Cl)c1` [JDL 389, 3-cyclohexylcarbamylsulfonamido-4-(3'-chloro)-phenylaminopyridine] are 73.3 mL/kg and 64.0%.
In the case of `CC(C)NC(=O)NS(=O)(=O)c1cnccc1Nc1cc(Cl)cc(Cl)c1` [JDL 474, 3-isopropylcarbamylsulfonamido-4-(3',5'-dichloro)-phenylaminopyridine], in the assay on rats, the Diuresis stood at 33.3 mL/kg.
On the same count and under the same terms, the same measure for `CNC(=O)NS(=O)(=O)c1cnccc1Nc1cccnc1` [JDL 506, 3-methylcarbamylsulfonamido-4-(3'-pyridylamino)-pyridine]: 13.5 mL/kg.

Values taken from patent publication USRE30633E, “3-Lower alkylcarbamylsulfonamido-4-phenylaminopyridines, n-oxides, derivatives thereof and pharmaceutical compositions containing same” (A. Christiaens Societe Anonyme, priority 1974, dated 1981).
